For data set [1], the system named is MDA-MB-231. Put plainly: Induction of apoptosis in human MDA-MB-231 cells assessed as early apoptotic cells at 10 uM incubated for 24 hrs by Annexin-V/FITC and PI staining based flow cytometry analysis (reference value: 1.4%). The format is functional.
Data set [2] concerns the target T1, Histone deacetylase 11 (Homo sapiens) (UniProt Q96DB2).
T1 sequence (whole entry): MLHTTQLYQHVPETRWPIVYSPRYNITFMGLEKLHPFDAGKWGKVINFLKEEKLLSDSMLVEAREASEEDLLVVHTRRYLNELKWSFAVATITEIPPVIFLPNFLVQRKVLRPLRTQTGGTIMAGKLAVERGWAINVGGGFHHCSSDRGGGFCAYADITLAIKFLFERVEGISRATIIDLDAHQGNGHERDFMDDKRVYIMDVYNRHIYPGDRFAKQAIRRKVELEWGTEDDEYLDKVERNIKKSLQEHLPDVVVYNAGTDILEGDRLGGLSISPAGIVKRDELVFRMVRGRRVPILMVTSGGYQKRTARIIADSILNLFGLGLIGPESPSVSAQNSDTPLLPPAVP
Put plainly: Inhibition of recombinant human HDAC11 at 10 uM using Boc-Lys(TFA)-AMC as substrate by fluorescence assay relative to control.

Data set [3] concerns MDA-MB-231. Put plainly: Induction of apoptosis in human MDA-MB-231 cells assessed as viable cells at 10 uM incubated for 24 hrs by Annexin-V/FITC and PI staining based flow cytometry analysis (reference value: 97.8%). Format: functional. The conditions noted are these: read-out: Activity.
For data set [4], the system named is MDA-MB-231. Briefly: Induction of apoptosis in human MDA-MB-231 cells assessed as increase in cleaved capase-3 level at 0.5 to 5 uM incubated for 24 hrs by Western blot analysis. The format is functional, cell-based. The conditions noted are these: dose 0.5-5 µM.
Data set [5] relates to 4T1. Briefly: Antitumor activity against mouse 4T1 cells allografted in BALB/c mouse assessed as reduction in tumor volume at 15 mg/kg, ip qd for 21 days and measured every 3 days by vernier caliper method relative to control. The format is functional. Details: scale not given: the % may be the effect or the level left. The following applies: time 21 day.
Data set [6] deals with Histone deacetylase (Homo sapiens) (UniProt Q13547+O15379+Q9UBN7+Q92769+Q9UQL6+Q8WUI4+Q9BY41+Q96DB2+P56524+Q9UKV0+Q969S8). Briefly: Inhibition of HDAC in human MDA-MB-231 cells assessed as increase in histone H3 acetylation incubated for 24 hrs by Western blot analysis. The format is cell-based. The conditions noted are these: dose 0.5-5 µM, DDE = dose-dependent effect.
For data set [7], the target named is T2, Protein deacetylase HDAC6 (Homo sapiens, UniProt Q9UBN7).
T2 sequence (Q9UBN7 whole entry): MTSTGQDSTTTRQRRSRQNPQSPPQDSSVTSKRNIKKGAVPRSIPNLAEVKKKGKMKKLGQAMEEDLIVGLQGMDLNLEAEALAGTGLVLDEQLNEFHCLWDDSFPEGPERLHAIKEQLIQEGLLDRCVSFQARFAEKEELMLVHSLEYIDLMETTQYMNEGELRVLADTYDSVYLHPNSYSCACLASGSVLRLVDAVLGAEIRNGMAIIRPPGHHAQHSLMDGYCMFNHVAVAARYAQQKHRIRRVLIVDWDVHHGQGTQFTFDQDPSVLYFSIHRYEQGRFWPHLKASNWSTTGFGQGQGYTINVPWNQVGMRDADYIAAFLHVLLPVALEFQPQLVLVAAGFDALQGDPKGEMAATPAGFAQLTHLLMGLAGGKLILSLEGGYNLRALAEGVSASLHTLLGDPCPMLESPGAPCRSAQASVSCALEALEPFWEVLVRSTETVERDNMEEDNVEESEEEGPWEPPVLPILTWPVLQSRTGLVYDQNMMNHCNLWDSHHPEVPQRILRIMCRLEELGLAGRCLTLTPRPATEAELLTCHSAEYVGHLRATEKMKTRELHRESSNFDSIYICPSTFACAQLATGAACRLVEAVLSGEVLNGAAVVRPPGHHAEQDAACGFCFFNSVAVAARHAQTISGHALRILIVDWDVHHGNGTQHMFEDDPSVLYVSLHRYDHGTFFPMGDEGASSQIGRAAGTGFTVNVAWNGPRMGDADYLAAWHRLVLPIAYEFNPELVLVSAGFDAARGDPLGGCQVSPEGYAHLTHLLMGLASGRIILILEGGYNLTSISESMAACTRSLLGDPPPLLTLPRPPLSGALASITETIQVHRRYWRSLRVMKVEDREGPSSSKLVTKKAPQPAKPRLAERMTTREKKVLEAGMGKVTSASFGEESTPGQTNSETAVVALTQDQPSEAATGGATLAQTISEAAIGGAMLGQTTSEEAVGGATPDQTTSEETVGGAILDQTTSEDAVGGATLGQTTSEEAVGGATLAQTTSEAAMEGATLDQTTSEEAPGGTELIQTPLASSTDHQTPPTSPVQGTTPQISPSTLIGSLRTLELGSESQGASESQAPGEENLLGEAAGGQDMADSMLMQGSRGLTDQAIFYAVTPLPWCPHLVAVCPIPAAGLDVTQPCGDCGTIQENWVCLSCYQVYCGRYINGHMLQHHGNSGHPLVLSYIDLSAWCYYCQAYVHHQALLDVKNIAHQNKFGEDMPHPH
Put plainly: Inhibition of recombinant human HDAC6 using RHKK(Ac)AMC fluorogenic peptide as substrate by fluorescence assay.

Data set [8] concerns 4T1. Briefly: Antitumor activity against mouse 4T1 cells allografted in BALB/c mouse assessed as reduction in tumor volume at 30 mg/kg, ip qd for 21 days and measured every 3 days by vernier caliper method relative to control. Format: functional. More on the design: scale not given: the % may be the effect or the level left. The conditions noted are these: time 21 day.
Data set [9] concerns the target T3, Signal transducer and activator of transcription 3 (Homo sapiens, UniProt P40763). Briefly: Inhibition of STAT3 phosphorylation at Y705 residue in human MDA-MB-231 cells incubated for 24 hrs by Western blot assay. Format: cell-based. The conditions noted are these: dose 0.5-5 µM.
The nature of data set [10]: Acute toxicity in po dosed ICR mouse assessed as maximum tolerated dose measured after 7 days. The following applies: in vivo, time 7 day. Format: organism-based.
In data set [11] the target is T3, Signal transducer and activator of transcription 3. Put plainly: Binding affinity to recombinant GST tagged STAT3 (unknown origin) assessed as dissociation constant.
The subject of data set [12] is MDA-MB-231. Put plainly: Induction of apoptosis in human MDA-MB-231 cells assessed as late apoptotic cells at 10 uM incubated for 24 hrs by Annexin-V/FITC and PI staining based flow cytometry analysis (reference value: 0.7%). The format is functional.
Data set [13] deals with T3, Signal transducer and activator of transcription 3. Put plainly: Inhibition of STAT3 in human MDA-MB-231 cells assessed as decrease in Bcl-2 protein expression at 0.5 to 5 uM after 24 hrs by Western blot analysis. The format is cell-based. The following applies: dose 0.5-5 µM.
In data set [14] the test system is MDA-MB-231. Put plainly: Induction of apoptosis in human MDA-MB-231 cells assessed as viable cells at 2 uM incubated for 24 hrs by Annexin-V/FITC and PI staining based flow cytometry analysis (reference value: 97.8%). The format is functional. The following applies: read-out: Activity.
Data set [15] deals with Histone deacetylase 4 (Homo sapiens) (UniProt P56524). Briefly: Inhibition of recombinant human HDAC4 at 10 uM using […] substrate by fluorescence assay relative to control.
Chain of Histone deacetylase 4 (Homo sapiens) (P56524 whole entry): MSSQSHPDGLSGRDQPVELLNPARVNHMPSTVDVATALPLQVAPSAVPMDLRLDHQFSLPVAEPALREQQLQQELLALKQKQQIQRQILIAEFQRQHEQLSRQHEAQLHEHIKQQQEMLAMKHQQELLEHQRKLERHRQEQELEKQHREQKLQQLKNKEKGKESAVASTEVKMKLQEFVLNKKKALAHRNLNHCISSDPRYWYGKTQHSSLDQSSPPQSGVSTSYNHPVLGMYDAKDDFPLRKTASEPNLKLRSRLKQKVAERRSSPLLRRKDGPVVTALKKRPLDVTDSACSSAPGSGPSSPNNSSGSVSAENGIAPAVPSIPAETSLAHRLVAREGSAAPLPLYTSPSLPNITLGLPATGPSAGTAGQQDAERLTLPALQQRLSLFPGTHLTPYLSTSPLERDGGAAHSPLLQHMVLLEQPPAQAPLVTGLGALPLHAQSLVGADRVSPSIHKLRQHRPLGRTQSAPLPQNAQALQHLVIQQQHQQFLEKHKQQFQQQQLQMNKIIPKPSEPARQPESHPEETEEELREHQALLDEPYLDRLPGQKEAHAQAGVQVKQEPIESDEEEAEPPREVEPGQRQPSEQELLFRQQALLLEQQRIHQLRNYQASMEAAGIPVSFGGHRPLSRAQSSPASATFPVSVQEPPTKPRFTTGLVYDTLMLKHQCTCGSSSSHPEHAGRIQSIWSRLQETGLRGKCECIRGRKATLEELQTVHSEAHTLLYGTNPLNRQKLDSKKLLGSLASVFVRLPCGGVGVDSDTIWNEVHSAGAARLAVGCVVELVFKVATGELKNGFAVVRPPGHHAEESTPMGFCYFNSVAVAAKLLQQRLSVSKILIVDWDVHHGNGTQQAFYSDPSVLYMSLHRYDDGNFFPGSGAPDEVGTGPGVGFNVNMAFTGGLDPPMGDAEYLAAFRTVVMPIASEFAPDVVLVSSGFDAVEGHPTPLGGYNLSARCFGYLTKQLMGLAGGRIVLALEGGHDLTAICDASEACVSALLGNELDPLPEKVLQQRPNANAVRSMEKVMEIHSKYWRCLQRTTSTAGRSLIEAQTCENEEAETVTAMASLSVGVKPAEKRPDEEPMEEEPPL
The test system of data set [16] is MDA-MB-231. Put plainly: Antimigratory activity against human MDA-MB-231 cells assessed as inhibition of cell migration at 5 uM after 24 hrs by scratch wound healing assay based phase contrast microscopy analysis. The format is functional.
The subject of data set [17] is MDA-MB-231. Put plainly: Induction of apoptosis in human MDA-MB-231 cells assessed as necrotic cells at 10 uM incubated for 24 hrs by Annexin-V/FITC and PI staining based flow cytometry analysis (reference value: 0.0%). The format is functional.

This is an account of results in ChEMBL document CHEMBL5154636, “Discovery of STAT3 and Histone Deacetylase (HDAC) Dual-Pathway Inhibitors for the Treatment of Solid Cancer” (J Med Chem, 2021).

pIC50, pKd: −log10 of the molar value. The source made the active and inactive calls. The calls are words filed in the database; no cut-off is given here. Bounds are passed on as bounds.

T3 sequence (P40763 whole entry): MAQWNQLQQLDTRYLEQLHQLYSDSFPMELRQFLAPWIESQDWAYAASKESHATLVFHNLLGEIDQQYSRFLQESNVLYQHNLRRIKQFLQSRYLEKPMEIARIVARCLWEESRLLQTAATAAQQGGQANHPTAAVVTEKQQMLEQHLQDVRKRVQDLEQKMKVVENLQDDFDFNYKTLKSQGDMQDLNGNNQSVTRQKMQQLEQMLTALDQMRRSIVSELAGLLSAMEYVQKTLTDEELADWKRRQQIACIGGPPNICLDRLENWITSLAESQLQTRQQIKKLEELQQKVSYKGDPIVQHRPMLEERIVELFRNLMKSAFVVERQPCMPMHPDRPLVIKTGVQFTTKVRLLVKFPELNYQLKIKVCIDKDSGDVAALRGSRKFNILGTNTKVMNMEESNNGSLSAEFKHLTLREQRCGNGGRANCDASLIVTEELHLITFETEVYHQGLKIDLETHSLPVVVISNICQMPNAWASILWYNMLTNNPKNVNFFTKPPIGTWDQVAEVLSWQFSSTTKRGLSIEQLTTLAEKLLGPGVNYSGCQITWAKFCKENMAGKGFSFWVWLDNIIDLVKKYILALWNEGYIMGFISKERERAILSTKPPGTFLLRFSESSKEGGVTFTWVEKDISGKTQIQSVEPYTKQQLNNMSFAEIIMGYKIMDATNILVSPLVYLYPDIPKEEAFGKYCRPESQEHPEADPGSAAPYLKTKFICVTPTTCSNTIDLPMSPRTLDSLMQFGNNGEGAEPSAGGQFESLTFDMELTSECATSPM

On to `COc1cc(/C=C/c2ccc(OCCCCCCC(=O)NO)cc2)cc(OC)c1`, for which the Activity in [1] is 39.6%; in [5], 54%; in data set [6] it was “Dde”; in data set [8], 64%; in data set [12], 19.7%; in data set [17] it was 0.2%. Moreover, the inhibition is 37% in data set [2] and 12% in data set [15]. The viability at 10 µM in data set [3] is 40.5%. The result in data set [4] and in [16] was Active. Moreover, in data set [7], the pIC50 was 6.98. Besides, the inhibition result in [9] and in [13] was “Active” throughout. The MTD at 168 h in data set [10] is > 400 mg/kg. Moreover, the Kd in data set [11] is 0.01516 s⁻¹. The pKd in [11] (read-out: Kd) is 7.47. The viability at 2 µM in [14] came to 89.3%.
